Experimental data reported in PMC11189555, “Aryl amino acetamides prevent Plasmodium falciparum ring development via targeting the lipid-transfer protein PfSTART1” (Nature Communications, 2024).
Several values for one entry are separate records, joined by “and”; a condition that tells them apart may be missing. Equal entries are not always repeated. Where two headings read alike, the source gives them in different places.

System: SLI-N330K parasites
Assay: Growth inhibition assay (72 h, LDH activity)
Format: cell-based, Plasmodium falciparum
Details: for Growth inhibition, (1 - av / DMSO) x 100: Fig 2B source data, per biological replicate; for EC50: Plasmodium falciparum
Method: Parasite growth assays with inhibitory compounds were performed as per[11] and are fully described in the Supplementary Information.
Molecular biology and transfection of P. falciparum: Selection Linked Integration […]
To introduce the PfSTART1 mutations, the second half of the coding sequence of pfstart1 (PF3D7_0104200), was recodonised without introns to the bias of Saccharomyces cerevisiae containing either WT, N309K or N330K mutations, and synthesised as gBlock fragments (Integrated DNA Technologies). The first 819 bp of the 5′ native sequence of pfstart1 was amplified from gDNA, to form the 5’ homology block (5’ HB). The 3′ recodonised gBlock fragment comprising of the last 552 bp of either the WT, N309K or N330K pfstart1 to form the ‘recodon’ block (primers listed in Table S2). The 5’ HB and recodon products were sewn together by overlapping PCR to reconstitute the full coding sequence of pfstart1. These blocks (WT/N309K/N330K) were digested with BglII/PstI, and inserted into the parasite vector p-HA-2A-Neo-glmS
1. This plasmid contains an in -frame haemagglutinin (HA) epitope for protein identification and a P2A peptide (2A) to skip continuous peptide bond synthesis of a downstream neomycin resistance gene ( NeoR).
Parasites containing the transfected DNA were selected using 2.5 nM WR99210 (Jacobus). To select for parasites in which single crossover integration had occurred into the pfstart1 locus, parasites were treated with 400 μg/mL G418 (geniticin, Sigma Aldrich) for 14 days: only parasites that have integrated the construct into their genome expressed the neomycin resistance gene together with the PfSTART1 protein.
Parasite lines were cloned using limiting dilution. These clones were then tested on Western Blot (for correct HA-tagging and protein size), and correct integration and sequence were tested by PCR analysis: PCR on the gDNA was conducted using the primers START_5’UTR.F and START_Seq.R (Table S2). […]
Growth inhibition assays. Synchronised ring-stage parasites (0.3-0.6% parasitemia, 2% haematocrit) were grown for 72 h in a serial-dilution of the compound under […]
and compound 4. Note that M-833 was first purchased from MolPort (MolPort -002-267-916) then made in-house at WEHI: the differences observed in EC50s across experiments are attributed to the different batches of M -833. For some experiments, 0, 0.25 or 2.5 mM of glucosamine (GlcN) was also added. Experiments were set up in technical duplicates or triplicates. Following a freeze -thaw cycle, lactate dehydrogenase (LDH) activity was assessed as an indicator of parasite growt h 5. 30 μL of parasite culture was incubated for 30 min in the dark with 75 μL Malstat mixture (0.1 M Tris pH 9.0, 20 g/L lactic acid, pH 7.5, 0.2% Triton-X100, 0.5 g/L acetylpyridine adenine dinucleotide (APAD, Sigma), 200 μg/mL nitroblue tetrazolium (NBT; Sigma), 1 μg/mL phenozine ethosulfate (PES; Sigma)). Absorbance was then measured at 650 nm, transformed using the formula below, plotted against the logarithm of the concentrations, and a non-linear regression (log(inhibitor) vs. response, variable slope) was calculated using GraphPad Prism to assess the half-inhibitory […]
Growth inhibition % = (1 − average(sample)− average(uRBC)) ∗ 100 […]
The DMSO samples were also used to assess growth of parasite in the presence of 0.25 and 2.5 mM GlcN (normalised by DMSO in 0 mM GlcN).
Egress, invasion & recovery assay. To measure egress, invasion and follow up recovery in the presence of different compounds, we adapted the method developed in6, using Hyp1-Nluc parasites7. These parasites episomally express the exported PEXEL protein Hyp1 (PF3D7_0113300) tagged with a NanoLuc luciferase (NLuc) and were selected with 2.5 nM WR99210 (Jacobus). Highly synchronised schizonts were obtained using ML10 (LifeArc) and sorbitol synchronisation, and Percoll-purified (the culture was gently layered over 67% Percoll (Cytiva) in RPMI, and centrifuged for 15 min at 1500 g and the schizont layer was collected and washed). […]

**Q.** How did the sample/DMSO (0.123457 uM M-833, START(N330K), 0.25 mM GlcN, biological replicate 4) turn out when `Cc1cc(Cl)c(S(=O)(=O)N2CCCC2)cc1OCC(=O)NC1CCCCC1` [M-833] was run?
**A.** -2.981

**Q.** What about the sample/DMSO (0.123457 uM M-833, START(N330K), 2.5 mM GlcN, biological replicate 1) of the same compound?
**A.** 25.4075

**Q.** What about the sample/DMSO (0.123457 uM M-833, START(N330K), 2.5 mM GlcN, biological replicate 2) of the same compound?
**A.** 9.59

**Q.** And the sample/DMSO (0.123457 uM M-833, START(N330K), 2.5 mM GlcN, biological replicate 3)?
**A.** 1.226

**Q.** What about the sample/DMSO (0.123457 uM M-833, START(N330K), 2.5 mM GlcN, biological replicate 4) of the same compound?
**A.** -0.1405

**Q.** And the sample/DMSO (0.37037 uM M-833, START(N330K), 0 mM GlcN, biological replicate 1)?
**A.** 19.3431

**Q.** What about the sample/DMSO (0.37037 uM M-833, START(N330K), 0 mM GlcN, biological replicate 2) of the same compound?
**A.** 2.274

**Q.** What about the sample/DMSO (0.37037 uM M-833, START(N330K), 0 mM GlcN, biological replicate 3) of the same compound?
**A.** 7.66

**Q.** What about the sample/DMSO (0.37037 uM M-833, START(N330K), 0 mM GlcN, biological replicate 4) of the same compound?
**A.** -3.175

**Q.** What about the sample/DMSO (0.37037 uM M-833, START(N330K), 0.25 mM GlcN, biological replicate 1) of the same compound?
**A.** 19.0968

**Q.** What about the sample/DMSO (0.37037 uM M-833, START(N330K), 0.25 mM GlcN, biological replicate 2) of the same compound?
**A.** 15.8158

**Q.** What about the sample/DMSO (0.37037 uM M-833, START(N330K), 0.25 mM GlcN, biological replicate 3) of the same compound?
**A.** 6.853

**Q.** What about the sample/DMSO (0.37037 uM M-833, START(N330K), 0.25 mM GlcN, biological replicate 4) of the same compound?
**A.** -2.547

**Q.** What about the sample/DMSO (0.37037 uM M-833, START(N330K), 2.5 mM GlcN, biological replicate 1) of the same compound?
**A.** 28.3178

**Q.** What about the sample/DMSO (0.37037 uM M-833, START(N330K), 2.5 mM GlcN, biological replicate 2) of the same compound?
**A.** 11.3273

**Q.** And the sample/DMSO (0.37037 uM M-833, START(N330K), 2.5 mM GlcN, biological replicate 3)?
**A.** 5.76

**Q.** And the sample/DMSO (0.37037 uM M-833, START(N330K), 2.5 mM GlcN, biological replicate 4)?
**A.** 6.979

**Q.** What about the sample/DMSO (1.11111 uM M-833, START(N330K), 0 mM GlcN, biological replicate 1) of the same compound?
**A.** 22.4532

**Q.** And the sample/DMSO (1.11111 uM M-833, START(N330K), 0 mM GlcN, biological replicate 2)?
**A.** 7.959

**Q.** And the sample/DMSO (1.11111 uM M-833, START(N330K), 0 mM GlcN, biological replicate 3)?
**A.** 16.7199

**Q.** And the sample/DMSO (1.11111 uM M-833, START(N330K), 0 mM GlcN, biological replicate 4)?
**A.** 4.969

**Q.** And the sample/DMSO (1.11111 uM M-833, START(N330K), 0.25 mM GlcN, biological replicate 1)?
**A.** 24.0145

**Q.** What about the sample/DMSO (1.11111 uM M-833, START(N330K), 0.25 mM GlcN, biological replicate 2) of the same compound?
**A.** 17.1338

**Q.** What about the sample/DMSO (1.11111 uM M-833, START(N330K), 0.25 mM GlcN, biological replicate 3) of the same compound?
**A.** 18.125

**Q.** What about the sample/DMSO (1.11111 uM M-833, START(N330K), 0.25 mM GlcN, biological replicate 4) of the same compound?
**A.** 8.022

**Q.** What about the sample/DMSO (1.11111 uM M-833, START(N330K), 2.5 mM GlcN, biological replicate 1) of the same compound?
**A.** 36.9907

**Q.** And the sample/DMSO (1.11111 uM M-833, START(N330K), 2.5 mM GlcN, biological replicate 2)?
**A.** 15.1494

**Q.** What about the sample/DMSO (1.11111 uM M-833, START(N330K), 2.5 mM GlcN, biological replicate 3) of the same compound?
**A.** 17.4656

**Q.** What about the sample/DMSO (1.11111 uM M-833, START(N330K), 2.5 mM GlcN, biological replicate 4) of the same compound?
**A.** 7.728

**Q.** And the “Growth inhibition, (1 - av / DMSO) x 100” value (SLI-N330K, M-833 conc 0.00304832 (unit not given))?
**A.** -17.2829% and -4.43% and -6.85%

**Q.** And the “Growth inhibition, (1 - av / DMSO) x 100” value (SLI-N330K, M-833 conc 0.00914495 (unit not given))?
**A.** -20.2465% and -6.679% and -8.021%

**Q.** What about the “Growth inhibition, (1 - av / DMSO) x 100” value (SLI-N330K, M-833 conc 0.0274348 (unit not given)) of the same compound?
**A.** -22.4472% and -9.048% and -10.9244%

**Q.** And the “Growth inhibition, (1 - av / DMSO) x 100” value (SLI-N330K, M-833 conc 0.0823045 (unit not given))?
**A.** -27.3474% and -6.202% and -4.991%

**Q.** And the “Growth inhibition, (1 - av / DMSO) x 100” value (SLI-N330K, M-833 conc 0.246914 (unit not given))?
**A.** -20.5399% and -4.464% and 0.9677%

**Q.** And the “Growth inhibition, (1 - av / DMSO) x 100” value (SLI-N330K, M-833 conc 0.740741 (unit not given))?
**A.** -11.4437% and -0.9712% and 2.699%

**Q.** What about the “Growth inhibition, (1 - av / DMSO) x 100” value (SLI-N330K, M-833 conc 2.22222 (unit not given)) of the same compound?
**A.** 10.9155% and 8.4% and 12.8088%

**Q.** What about the “Growth inhibition, (1 - av / DMSO) x 100” value (SLI-N330K, M-833 conc 6.66667 (unit not given)) of the same compound?
**A.** 48.6796% and 44.0109% and 38.2735%

**Q.** And the “Growth inhibition, (1 - av / DMSO) x 100” value (SLI-N330K, M-833 conc 20 (unit not given))?
**A.** 69.4542% and 76.7081% and 72.5236%

**Q.** What about the sample/DMSO (M-833 3.33333 uM, START(N330K), 0 mM GlcN, biological replicates 1-4) of the same compound?
**A.** 23.2009 and 27.766 and 32.1009 and 22.2063

**Q.** What about the sample/DMSO (M-833 3.33333 uM, START(N330K), 0.25 mM GlcN, biological replicates 1-4) of the same compound?
**A.** 36.1845 and 29.2292 and 28.75 and 22.2222

**Q.** What about the sample/DMSO (M-833 3.33333 uM, START(N330K), 2.5 mM GlcN, biological replicates 1-4) of the same compound?
**A.** 45.6636 and 29.3607 and 33.6678 and 26.3232

**Q.** What about the sample/DMSO (M-833 10 uM, START(N330K), 0 mM GlcN, biological replicates 1-4) of the same compound?
**A.** 60.4059 and 63.1206 and 59.1558 and 63.3004

**Q.** And the sample/DMSO (M-833 10 uM, START(N330K), 0.25 mM GlcN, biological replicates 1-4)?
**A.** 65.2315 and 63.5636 and 70.0446 and 58.3469

**Q.** And the sample/DMSO (M-833 10 uM, START(N330K), 2.5 mM GlcN, biological replicates 1-4)?
**A.** 68.4226 and 62.1265 and 64.6971 and 47.1194

**Q.** And the EC50 (Fig 2B, SLI-N330K, 72 h, n = 3, unit only in x-axis title, read-out: EC50 (95% confidence interval))?
**A.** 6.27 µM

**Q.** What about the EC50 (Fig 3C, SLI-N330K, 2.5 mM GlcN, n = 4, unit on plot axis, read-out: EC50 M-833 (95% confidence interval)) of the same compound?
**A.** > 3 µM

**Q.** What about the “fold more resistant than the 3D7 parental parasites” value (SLI-N330K, Fig 2B) of the same compound?
**A.** 64 fold
